Assay [1] relates to T47D human breast cancer cells. The assay can be described thus: T47D Human Breast Cancer Cells Assay (alkaline phosphatase). It is filed as cell-based. The settings on record: 24 h with test compound, luminescence. How it is done:
T47D Human Breast Cancer Cells Assay
T47D human breast cancer cells were grown in RPMI medium without phenol red (Invitrogen) containing 10% (v/v) heat-inactivated fetal bovine serum (FBS; Hyclone), 1% (v/v) penicillin-streptomycin (Invitrogen), 1% (w/v) glutamine (Invitrogen), and […] insulin (Sigma). Incubation conditions were 37° C. in a humidified 5% (v/v) carbon dioxide environment.
The cells were plated in 96-well tissue culture plates at 10,000 cells per well in assay medium [RPMI medium without phenol red (Invitrogen) containing 5% (v/v) charcoal-treated FBS (Hyclone) and 1% (v/v) penicillin-streptomycin (Invitrogen)]. Two days later, the medium was decanted and test compound or control were added at a final concentration of 0.1% (v/v) dimethyl sulfoxide in fresh assay medium. Twenty-four hours later, an alkaline phosphatase assay was performed using a SEAP kit (BD Biosciences Clontech, Palo Alto, Calif.). Briefly, the medium was decanted and the cells were fixed for 30 minutes at room temperature with 5% (v/v) formalin (Sigma). The cells were washed once with room temperature Hank's buffered saline solution (Invitrogen). Equal volumes (0.05 mL) of 1× Dilution Buffer, Assay Buffer and 1:20 substrate/enhancer mixture were then added. After 1 hour incubation at room temperature in the dark, the lysate was transferred to a white 96-well plate (Dynex) and luminescence was read using a LuminoSkan Ascent (Thermo Electron, Woburn, Mass.).

The test system of assay [2] is A549 Human lung carcinoma cells. Put plainly: A549 Human Lung Cell Assay (transfected, dexamethasone challenge, Luc-assay). The settings on record: Dexamathasone challenge, 24 h. It counts as cell-based. On the procedure:
A549 Human Lung Cell Assay
A549 Human lung carcinoma cells were grown in F-12K Nutrient Mixture containing 10% (v/v) fetal bovine serum (FBS; Invitrogen), 2 mM glutamine and 0.15% sodium dicarbonate (Invitrogen).
A549 cells were split 1 to 3 in 175 cm tissue culture flask. The cells were incubated at 37° C. in CO2 incubator until the cells were 95% confluent (typically 24-30 hours).
The following solutions were prepared in sterile tubes: (a) Solution A: 1.5 μg/ml of DNA in 8.5 ml OPTI-MEM I Reduced Serum Medium. (GIBCO cat# 31985) and (b) Solution B: 6 μl/ml of DMRIE-C Reagent into […] OPTI-MEM I. The two solutions were combined and mixed gently, then incubated at room temperature for 40 minutes.
The A549 cells prepared above were washed with […] of OPTI-MEM I. The medium was removed and 17 ml of the lipid-DNA complex solution was overlayed onto cells. The cells ere then incubated for 16 h at 37° C. in CO2 incubator. The DNA-containing medium was removed and 30 ml of growth medium was added. (5% Charcoal treated FBS) After 5-6 h, the cells were seeded in a 96 well plate and the cells incubated overnight at 37° C. in CO2 incubator.
To each well was then added 5 μl of test compounds and the cells incubated at 37° C. for 10 min. 5 μL of Dexamathasone (CAS [50-02-2]), was then added to each well for challenger and the cells incubated at 37° C. in CO2 incubator for 24 h. 100 μl of Luc-assay buffer was then added into each cell well and the cells incubated for 30 min at room temperature. A 150 μL sample from each well was then transferred into a DYNEX Microlitel plate and read on Top-counter.

As for `CN(C)c1ccc([C@H]2C[C@@]3(C)[C@@H](CC[C@@]3(O)C#Cc3cccc(Cl)c3)[C@@H]3OCC4=CC(=O)CCC4=C32)cc1` [Compound 20, 17-(3-Chloro-phenylethynyl)-11-(4-dimethylamino-phenyl)-17-hydroxy-13-methyl-1,2,8,11,12,13,14,15,16,17-decahydro-6H-7-oxa-cyclopenta[a]phenanthren-3-one], the figures for the IC50 in assay [1] and in assay [2] were 12.5 nM and 48.9 nM, respectively.

As for `C#C[C@]1(O)CC[C@H]2[C@@H]3OCC4=CC(=O)CCC4=C3C(c3ccc(N(C)C)cc3)C[C@@]21C` (stereo in doubt) [Compound 4, 11-(4-Dimethylamino-phenyl)-17-ethynyl-17-hydroxy-13-methyl-1,2,8,11,12,13,14,15,16,17-decahydro-6H-7-oxa-cyclopenta[a]phenanthren-3-one], the half-inhibitory concentration (IC50) worked out at 19 nM in assay [1] and 204 nM in assay [2].

As to `Cc1cccc(C#C[C@]2(O)CC[C@H]3[C@@H]4OCC5=CC(=O)CCC5=C4[C@@H](c4ccc(N(C)C)cc4)C[C@@]32C)c1` [Compound 25, 11-(4-Dimethylamino-phenyl)-17-hydroxy-13-methyl-7-m-tolylethynyl-1,2,8,11,12,13,14,15,16,17-decahydro-6H-7-oxa-cyclopenta[a]phenanthren-3-one], the IC50 in assay [1] is 2.85 nM; in assay [2], 36.3 nM.

As for `CN(C)c1ccc([C@H]2C[C@@]3(C)[C@@H](CC[C@@]3(O)C#Cc3ccccc3)[C@@H]3OCC4=CC(=O)CCC4=C32)cc1` [Compound 3, 11-(4-Dimethylamino-phenyl)-17-hydroxy-13-methyl-17-phenylethynyl-1,2,8,11,12,13,14,15,16,17-decahydro-6H-7-oxa-cyclopenta[a]phenanthren-3-one], the IC50 in assay [1] stood at 1.38 nM; in assay [2] it was 304 nM.

With `CN(C)CC#C[C@]1(O)CC[C@H]2[C@@H]3OCC4=CC(=O)CCC4=C3C(c3ccc(N(C)C)cc3)C[C@@]21C` (stereo partly drawn) [Compound 31], the results for the IC50 in assay [1] and in assay [2] were over 1000 nM and over 3000 nM, respectively.

For the compound `CN(C)c1ccc([C@H]2C[C@@]3(C)[C@@H](CC[C@@]3(O)C#Cc3ccc(C(F)(F)F)cc3)[C@@H]3OCC4=CC(=O)CCC4=C32)cc1` [Compound 9], the IC50 in assay [1] is 0.748 nM; in assay [2], 111 nM.

Consider `CN(C)c1ccc([C@H]2C[C@@]3(C)[C@@H](CC[C@@]3(O)C#Cc3ccc(Br)cc3)[C@@H]3OCC4=CC(=O)CCC4=C32)cc1` [Compound 11, 17-(4-Bromo-phenylethynyl)-11-(4-dimethylamino-phenyl)-17-hydroxy-13-methyl-1,2,8,11,12,13,14,15,16,17-decahydro-6H-7-oxa-cyclopenta[a]phenanthren-3-one], for which the IC50 in assay [1] was determined as 0.943 nM; in assay [2] it was 31.3 nM.

On to `Cc1ccccc1C#C[C@]1(O)CC[C@H]2[C@@H]3OCC4=CC(=O)CCC4=C3[C@@H](c3ccc(N(C)C)cc3)C[C@@]21C` [Compound 24, 11-(4-Dimethylamino-phenyl)-17-hydroxy-13-methyl-17-o-tolylethynyl-1,2,8,11,12,13,14,15,16,17-decahydro-6H-7-oxa-cyclopenta[a]phenanthren-3-one], for which the IC50 turned out to be 5.8 nM in assay [1] and 113 nM in assay [2].

`COCC#C[C@]1(O)CC[C@H]2[C@@H]3OCC4=CC(=O)CCC4=C3C(c3ccc(N(C)C)cc3)C[C@@]21C` (stereo in doubt) [Compound 30, 11-(4-Dimethylamino-phenyl)-17-hydroxy-17-(3-methoxy-prop-1-ynyl)-13-methyl-1,2,8,11,12,13,14,15,16,17-decahydro-6H-7-oxa-cyclopenta[a]phenanthren-3-one]: the IC50 turned out to be 600 nM in assay [1] and 315 nM in assay [2].

On to `CN(C)c1ccc(C2C[C@@]3(C)[C@@H](CC[C@@]3(O)C#CC(F)(F)F)[C@@H]3OCC4=CC(=O)CCC4=C23)cc1` (stereo in doubt) [Compound 13, 11-(4-Dimethylamino-phenyl)-17-hydroxy-13-methyl-17-trifluoroprop-1-ynyl-1,2,8,11,12,13,14,15,16,17-decahydro-6H-7-oxa-cyclopenta[a]phenanthren-3-one], for which the IC50 worked out at 18.6 nM in assay [1] and 55.5 nM in assay [2].

Consider `CN(C)c1ccc([C@H]2C[C@@]3(C)[C@@H](CC[C@@]3(O)C#Cc3ccc(F)cc3)[C@@H]3OCC4=CC(=O)CCC4=C32)cc1` [Compound 8, 11-(4-Dimethylamino-phenyl)-17-(4-fluoro-phenylethynyl)-17-hydroxy-13-methyl-1,2,8,11,12,13,14,15,16,17-decahydro-6H-7-oxa-cyclopenta[a]phenanthren-3-one], for which the values for the IC50 in assay [1] and in assay [2] were 0.269 nM and 37.6 nM, respectively.

`CN(C)c1ccc([C@H]2C[C@@]3(C)[C@@H](CC[C@@]3(O)C#Cc3ccccc3Cl)[C@@H]3OCC4=CC(=O)CCC4=C32)cc1` [Compound 19, 17-(2-Chloro-phenylethynyl)-11-(4-dimethylamino-phenyl)-17-hydroxy-13-methyl-1,2,8,11,12,13,14,15,16,17-decahydro-6H-7-oxa-cyclopenta[a]phenanthren-3-one]: the IC50 in assay [1] was found to be 1.08 nM; in assay [2] it was 64.8 nM.

On to `CN(C)c1ccc([C@H]2C[C@@]3(C)[C@@H](CC[C@@]3(O)C#Cc3cc(F)cc(F)c3)[C@@H]3OCC4=CC(=O)CCC4=C32)cc1` [Compound 18, 17-(3,5-Difluoro-phenylethynyl)-11-(4-dimethylamino-phenyl)-17-hydroxy-13-methyl-1,2,8,11,12,13,14,15,16,17-decahydro-6H-7-oxa-cyclopenta[a]phenanthren-3-one], for which the results for the 50% inhibitory concentration (IC50) in assay [1] and in assay [2] were 0.905 nM and 34.4 nM, respectively.

On to `CN(C)c1ccc([C@H]2C[C@@]3(C)[C@@H](CC[C@@]3(O)C#CC3CC3)[C@@H]3OCC4=CC(=O)CCC4=C32)cc1` [Compound 2, 17-Cyclopropylethynyl-11-(4-dimethylamino-phenyl)-17-hydroxy-13-methyl-1,2,8,11,12,13,14,15,16,17-decahydro-6H-7-oxa-cyclopenta[a]phenanthren-3-one], for which the IC50 turned out to be 9.55 nM in assay [1] and 33.4 nM in assay [2].

Regarding `CC#C[C@]1(O)CC[C@H]2[C@@H]3OCC4=CC(=O)CCC4=C3[C@@H](c3ccc(N(C)C)cc3)C[C@@]21C` [Compound 1, 11-(4-Dimethylamino-phenyl)-17-hydroxy-13-methyl-17-prop-1-ynyl-1,2,8,11,12,13,14,15,16,17-decahydro-6H-7-oxa-cyclopenta[a]phenanthren-3-one], the figures for the IC50 in assay [1] and in assay [2] were 5.15 nM and 86.5 nM, respectively.

Take `CN(C)c1ccc(C2C[C@@]3(C)[C@@H](CC[C@@]3(O)C#Cc3cccnc3)[C@@H]3OCC4=CC(=O)CCC4=C23)cc1` (stereo in doubt) [Compound 27, 11-(4-Dimethylamino-phenyl)-17-hydroxy-13-methyl-17-pyridin-3-ylethynyl-1,2,8,11,12,13,14,15,16,17-decahydro-6H-7-oxa-cyclopenta[a]phenanthren-3-one]: the IC50 in assay [1] was 21 nM; in assay [2], 342 nM.

Regarding `CN(C)c1ccc(C2C[C@@]3(C)[C@@H](CC[C@@]3(O)C#CC(C)(C)C)[C@@H]3OCC4=CC(=O)CCC4=C23)cc1` (stereo in doubt) [Compound 5, 11-(4-Dimethylamino-phenyl)-17-(3,3-dimethyl-but-1-ynyl)-17-hydroxy-13-methyl-1,2,8,11,12,13,14,15,16,17-decahydro-6H-7-oxa-cyclopenta[a]phenanthren-3-one], the IC50 in assay [1] is 185 nM; in assay [2], 167 nM.

For the compound `CN(C)c1ccc([C@H]2C[C@@]3(C)[C@@H](CC[C@@]3(O)C#Cc3ccccc3F)[C@@H]3OCC4=CC(=O)CCC4=C32)cc1` [Compound 16, 11-(4-Dimethylamino-phenyl)-17-(2-fluoro-phenylethynyl)-17-hydroxy-13-methyl-1,2,8,11,12,13,14,15,16,17-decahydro-6H-7-oxa-cyclopenta[a]phenanthren-3-one], the IC50 worked out at 1.43 nM in assay [1] and 65.1 nM in assay [2].
